Data on twelve compounds can be found in patent US10947248B2, “4β-amidotriazole linked podophyllotoxin derivatives as potential anticancer agents” (COUNCIL OF SCIENTIFIC & INDUSTRIAL RESEARCH, priority 2016, dated 2021).

Data set [1] concerns DU-145 (human prostate cancer). In words: MTT in vitro cytotoxicity assay, DU-145. The class given is cell-based. Conditions: read-out: IC50 DU-145.
Another data set concerns A549 (human lung cancer). Kind of data set: MTT in vitro cytotoxicity assay, A549. The class given is cell-based. The note with it: read-out: IC50 A549.
The test system of data set [2] is Hela (human cervical cancer). Kind of data set: MTT in vitro cytotoxicity assay, Hela. Type of data set: cell-based. The note with it: read-out: IC50 Hela.
Data set [3] has as its system MCF-7 (human breast cancer). Kind of data set: MTT in vitro cytotoxicity assay, MCF-7. The note with it: read-out: IC50 MCF-7. Type of data set: cell-based.
The test system of a further data set is HepG2 (liver cancer). Kind of data set: MTT in vitro cytotoxicity assay, HepG2. Type of data set: cell-based. Conditions: Homo sapiens, read-out: IC50 HepG2.
In a further data set the test system is HT-29 (colon cancer). In words: MTT in vitro cytotoxicity assay, HT-29. Conditions: Homo sapiens, read-out: IC50 HT-29. Type of data set: cell-based.
Data set [4] relates to human cancer cell lines (Hela, MCF-7, DU-145, A549, HepG2, HT-29). Kind of data set: MTT in vitro cytotoxicity assay, all tested human cancer cell lines. The class given is cell-based. The note with it: range over Hela, read-out: IC50 values ranging over all tested human cancer cell lines. From the text:
The IC50 values (in μM) for compounds 8a, 8c, 8n, 8p, 9c and 9p have been illustrated in Table 1.

SMILES strings stand for the structures. Like-named read-outs stand apart in the source and are kept apart here.

In the case of `COc1cc([C@@H]2c3cc4c(cc3[C@@H](NC(=O)c3cn(-c5cc(OC)c(OC)c(OC)c5)nn3)[C@H]3COC(=O)[C@H]23)OCO4)cc(OC)c1OC`, the melting point (in general, the temperature of the solid-liquid transition) was in the range of 181 to 183 °C.

With `COc1cc([C@@H]2c3cc4c(cc3[C@@H](O[C@@H]3O[C@@H]5CO[C@@H](C)O[C@H]5[C@H](O)[C@H]3O)[C@H]3COC(=O)[C@H]23)OCO4)cc(OC)c1O` [Etoposide, reference compound], the 50% inhibitory concentration (IC50) – broadly, the midpoint of a concentration-inhibition curve – turned out to be 2350 ± 50 nM in data set [1] (DU-145, 48 h of drug treatment, average of three individual experiments); 1970 ± 170 nM in the data set with A549 (human lung cancer) (A549, 48 h of drug treatment, average of three individual experiments); 2710 ± 520 nM in data set [2] (Hela, 48 h of drug treatment, average of three individual experiments); 1620 ± 140 nM in data set [3] (MCF7, MCF-7, 48 h of drug treatment, average of three individual experiments); 2840 ± 270 nM in the data set on HepG2 (liver cancer) (HepG2, 48 h of drug treatment, average of three individual experiments); 1870 ± 310 nM in the data set with HT-29 (colon cancer) (HT-29, 48 h of drug treatment, average of three individual experiments).

As to `COc1cc(Cn2cc(C(=O)N[C@@H]3c4cc5c(cc4[C@@H](c4cc(OC)c(OC)c(OC)c4)[C@H]4C(=O)OC[C@@H]43)OCO5)nn2)cc(OC)c1OC`, the melting point lay within 189 to 192 °C.

Turning to `COc1cc([C@@H]2c3cc4c(cc3[C@@H](NC(=O)c3cn(Cc5ccc(Cl)cc5)nn3)[C@H]3COC(=O)[C@H]23)OCO4)cc(OC)c1OC` [Compound 9p, 1-(4-chlorobenzyl)-N-((5S,5aS,8aR,9R)-8-oxo-9-(3,4,5-trimethoxyphenyl)-5,5a,6,8,8a,9-hexahydrofuro[3′,4′:6,7]naphtho[2,3-d][1,3]dioxol-5-yl)-1H-1,2,3-triazole-4-carboxamide], the melting point is 180 to 184 °C. For the same compound, the concentration for half-maximal inhibition (IC50) in data set [1] (DU-145, 48 h) came out at 2370 ± 80 nM. Moreover, the IC50 in the data set on A549 (human lung cancer) (A549, 48 h) turned out to be 8060 ± 60 nM. In addition, the IC50 in data set [2] (HeLa, 48 h) was 3570 ± 160 nM. Further, the IC50 in data set [3] (MCF7, 48 h) is 5300 ± 390 nM. Moreover, the IC50 with HepG2 (liver cancer) (HepG2, 48 h) was found to be 3540 ± 370 nM. In data set [4], the IC50 was in the range of 700 to 4000 nM. Besides, the IC50 in the data set with HT-29 (colon cancer) (HT-29, 48 h) was 23700 ± 380 nM.

As to `COc1cc([C@@H]2c3cc4c(cc3[C@H](O)[C@H]3COC(=O)[C@H]23)OCO4)cc(OC)c1OC` [Podophyllotoxin], the IC50 in data set [1] (DU-145, 48 h) stood at 4150 ± 630 nM; in the data set with A549 (human lung cancer) (A549, 48 h), 4600 ± 420 nM; in data set [2] (HeLa, 48 h) it was 3450 ± 290 nM; in data set [3] (MCF7, 48 h) it was 3060 ± 240 nM; in the data set on HepG2 (liver cancer) (HepG2, 48 h), 6630 ± 170 nM; in the data set on HT-29 (colon cancer) (HT-29, 48 h), 4780 ± 160 nM.

`COc1cc(OC)cc(-n2cc(C(=O)N[C@@H]3c4cc5c(cc4[C@@H](c4cc(OC)c(OC)c(OC)c4)[C@H]4C(=O)OC[C@@H]43)OCO5)nn2)c1` had a melting point of 145 to 148 °C.

For `COc1ccc(Cn2cc(C(=O)N[C@@H]3c4cc5c(cc4[C@@H](c4cc(OC)c(OC)c(OC)c4)[C@H]4C(=O)OC[C@@H]43)OCO5)nn2)cc1` [Compound 9c, 1-(4-methoxybenzyl)-N-((5S,5aS,8aR,9R)-8-oxo-9-(3,4,5-trimethoxyphenyl)-5,5a,6,8,8a,9-hexahydrofuro[3′,4′:6,7]naphtho[2,3-d][1,3]dioxol-5-yl)-1H-1,2,3-triazole-4-carboxamide], the melting point was 174 to 177 °C. In data set [1] (DU-145, 48 h), the IC50 is 1760 ± 270 nM. Further, the IC50 in the data set on A549 (human lung cancer) (A549, 48 h) amounted to 5820 ± 430 nM. The IC50 in data set [2] (HeLa, 48 h) amounted to 3460 ± 60 nM. Moreover, the IC50 in data set [3] (MCF7, 48 h) is 3320 ± 550 nM. Also, in the data set with HepG2 (liver cancer) (HepG2, 48 h), the half-inhibitory concentration (IC50) is 1960 ± 70 nM. Besides, in data set [4], the concentration for half-maximal inhibition (IC50) is 700 to 4000 nM. For the same compound, the half-maximal inhibitory concentration (IC50) in the data set on HT-29 (colon cancer) (HT-29, 48 h) came out at 17500 ± 340 nM.

Consider `COc1cc([C@@H]2c3cc4c(cc3[C@@H](NC(=O)c3cn(-c5ccccc5)nn3)[C@H]3COC(=O)[C@H]23)OCO4)cc(OC)c1OC` [Compound 8a, N-((5S,5aS,8aR,9R)-8-oxo-9-(3,4,5-trimethoxyphenyl)-5,5a,6,8,8a,9-hexahydrofuro[3′,4′:6,7]naphtho[2,3-d][1,3]dioxol-5-yl)-1-phenyl-1H-1,2,3-triazole-4-carboxamide], for which the melting point fell in the range of 170 to 172 °C. In addition, the half-inhibitory concentration (IC50) in data set [1] (DU-145, 48 h) came out at 1310 ± 110 nM. Besides, the half-maximal inhibitory concentration (IC50) in the data set on A549 (human lung cancer) (A549, 48 h) is 1820 ± 110 nM. The IC50 in data set [2] (HeLa, 48 h) was 2470 ± 240 nM. In data set [3] (MCF7, 48 h), the IC50 turned out to be 1450 ± 460 nM. Also, the half-maximal inhibitory concentration (IC50) in the data set on HepG2 (liver cancer) (HepG2, 48 h) is 1940 ± 130 nM. In data set [4], the half-inhibitory concentration (IC50) lay within 700 to 4000 nM. For the same compound, the IC50 in the data set with HT-29 (colon cancer) (HT-29, 48 h) amounted to 5370 ± 740 nM.

In turn, `COc1ccc(-n2cc(C(=O)N[C@@H]3c4cc5c(cc4[C@@H](c4cc(OC)c(OC)c(OC)c4)[C@H]4C(=O)OC[C@@H]43)OCO5)nn2)cc1` [Compound 8c, 1-(4-methoxyphenyl)-N-((5S,5aS,8aR,9R)-8-oxo-9-(3,4,5-trimethoxyphenyl)-5,5a,6,8,8a,9-hexahydrofuro[3′,4′:6,7]naphtho[2,3-d][1,3]dioxol-5-yl)-1H-1,2,3-triazole-4-carboxamide] had a melting point of 195 to 197 °C. Further, the IC50 in data set [1] (DU-145, 48 h) is 990 ± 70 nM. In the data set with A549 (human lung cancer) (A549, 48 h), the 50% inhibitory concentration (IC50) is 1610 ± 380 nM. The IC50 in data set [2] (HeLa, 48 h) was 6490 ± 220 nM. Moreover, in data set [3] (MCF7, 48 h), the IC50 stood at 1110 ± 100 nM. Also, in the data set on HepG2 (liver cancer) (HepG2, 48 h), the IC50 amounted to 2790 ± 540 nM. The IC50 in data set [4] fell in the range of 700 to 4000 nM. For the same compound, the 50% inhibitory concentration (IC50) in the data set with HT-29 (colon cancer) (HT-29, 48 h) came out at 11400 ± 1660 nM.

The compound `COc1cc([C@@H]2c3cc4c(cc3[C@@H](NC(=O)c3cn(-c5ccc(C(F)(F)F)cc5)nn3)[C@H]3COC(=O)[C@H]23)OCO4)cc(OC)c1OC` [Compound 8n, N-((5S,5aS,8aR,9R)-8-oxo-9-(3,4,5-trimethoxyphenyl)-5,5a,6,8,8a,9-hexahydrofuro[3′,4′:6,7]naphtho[2,3-d][1,3]dioxol-5-yl)-1-(4-(trifluoromethyl)phenyl)-1H-1,2,3-triazole-4-carboxamide] showed a melting point of 190 to 194 °C. The IC50 in data set [1] (DU-145, 48 h) amounted to 890 ± 20 nM. Moreover, the concentration for half-maximal inhibition (IC50) in the data set on A549 (human lung cancer) (A549, 48 h) turned out to be 1960 ± 80 nM. Further, the IC50 in data set [2] (HeLa, 48 h) was 1210 ± 270 nM. In data set [3] (MCF7, 48 h), the IC50 is 1350 ± 70 nM. Moreover, in the data set on HepG2 (liver cancer) (HepG2, 48 h), the IC50 was found to be 1210 ± 270 nM. Moreover, the half-inhibitory concentration (IC50) in data set [4] was in the range of 700 to 4000 nM. Further, the 50% inhibitory concentration (IC50) in the data set with HT-29 (colon cancer) (HT-29, 48 h) is 4400 ± 50 nM.

The compound `COc1cc([C@@H]2c3cc4c(cc3[C@@H](NC(=O)c3cn(-c5ccc(Cl)cc5)nn3)[C@H]3COC(=O)[C@H]23)OCO4)cc(OC)c1OC` [Compound 8p, 1-(4-chlorophenyl)-N-((5S,5aS,8aR,9R)-8-oxo-9-(3,4,5-trimethoxyphenyl)-5,5a,6,8,8a,9-hexahydrofuro[3′,4′:6,7]naphtho[2,3-d][1,3]dioxol-5-yl)-1H-1,2,3-triazole-4-carboxamide] registered a melting point of 222 to 225 °C. Also, the IC50 in data set [1] (DU-145, 48 h) was found to be 700 nM. For the same compound, in the data set with A549 (human lung cancer) (A549, 48 h), the 50% inhibitory concentration (IC50) came out at 1200 nM. The IC50 in data set [2] (HeLa, 48 h) turned out to be 780 nM. Also, the IC50 in data set [3] (MCF7, 48 h) is 970 nM. For the same compound, the concentration for half-maximal inhibition (IC50) with HepG2 (liver cancer) (HepG2, 48 h) turned out to be 780 nM. Moreover, the IC50 in data set [4] lay in the range of 700 to 4110 nM. The concentration for half-maximal inhibition (IC50) in the data set on HT-29 (colon cancer) (HT-29, 48 h) was 4110 nM.

With `COc1cc([C@@H]2c3cc4c(cc3[C@@H](NC(=O)c3cn(-c5ccc6c(c5)OCO6)nn3)[C@H]3COC(=O)[C@H]23)OCO4)cc(OC)c1OC`, the melting point was in the range of 188 to 191 °C.
